Experimental data from ChEMBL document CHEMBL1159297, “Anguillosporal, a new antibacterial and antifungal metabolite from the freshwater fungus Anguillospora longissima” (1995).
In brackets after ≈: the same amount, converted by molar mass.

Tests used:
[1] = test system: Candida albicans; test: Antifungal activity against Candida albicans ATCC 90029 by broth macrodilution method; format: functional
[2] = test system: Staphylococcus aureus; test: Antibacterial activity against Staphylococcus aureus ATCC 29213 by broth macrodilution method; format: functional

MIC [1]: 58 µg/mL (≈ 232 µM)
MIC [2]: 4 µg/mL (≈ 16 µM)
Compound: CCCCC(C)c1cc(O)c(CC)c(O)c1C=O (configuration not stated) [ANGUILLOSPORAL]
